Measured values reported in PubChem BioAssay (NCI).
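GI50 marks 50% less growth. TGI marks complete inhibition of growth.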

Legend:
Test in all cases: DTP human tumour cell line panel, 384-well format
786-0 renal = tested on: 786-0 renal
A498 renal = tested on: A498 renal
ACHN renal = tested on: ACHN renal
BT-549 breast = tested on: BT-549 breast
CAKI-1 renal = tested on: CAKI-1 renal
CCRF-CEM leukemia = tested on: CCRF-CEM leukemia
COLO 205 colon = tested on: COLO 205 colon
DU-145 prostate = tested on: DU-145 prostate
EKVX NSCLC = tested on: EKVX NSCLC
HCC-2998 colon = tested on: HCC-2998 colon
HCT-116 colon = tested on: HCT-116 colon
HCT-15 colon = tested on: HCT-15 colon
HL-60(TB) leukemia = tested on: HL-60(TB) leukemia
HOP-62 NSCLC = tested on: HOP-62 NSCLC
HOP-92 NSCLC = tested on: HOP-92 NSCLC
HS 578T breast = tested on: HS 578T breast
HT29 colon = tested on: HT29 colon
KM12 colon = tested on: KM12 colon
LOX IMVI melanoma = tested on: LOX IMVI melanoma
M14 melanoma = tested on: M14 melanoma
MALME-3M melanoma = tested on: MALME-3M melanoma
MCF7 breast = tested on: MCF7 breast
MDA-MB-231 breast = tested on: MDA-MB-231 breast
MDA-MB-435 melanoma = tested on: MDA-MB-435 melanoma
MDA-MB-468 breast = tested on: MDA-MB-468 breast
NCI-H226 lung = tested on: NCI-H226 lung
NCI-H23 lung = tested on: NCI-H23 lung
NCI-H322M lung = tested on: NCI-H322M lung
NCI-H460 NSCLC = tested on: NCI-H460 NSCLC
NCI-H522 lung = tested on: NCI-H522 lung
NCI/ADR-RES ovarian = tested on: NCI/ADR-RES ovarian
OVCAR-3 ovarian = tested on: OVCAR-3 ovarian
OVCAR-4 ovarian = tested on: OVCAR-4 ovarian
OVCAR-8 ovarian = tested on: OVCAR-8 ovarian
PC-3 prostate = tested on: PC-3 prostate
RPMI-8226 leukemia = tested on: RPMI-8226 leukemia
RXF 393 renal = tested on: RXF 393 renal
SF-268 CNS = tested on: SF-268 CNS
SF-295 CNS = tested on: SF-295 CNS
SF-539 CNS = tested on: SF-539 CNS
SK-MEL-28 melanoma = tested on: SK-MEL-28 melanoma
SK-MEL-5 melanoma = tested on: SK-MEL-5 melanoma
SK-OV-3 ovarian = tested on: SK-OV-3 ovarian
SN12C renal = tested on: SN12C renal
SNB-19 CNS = tested on: SNB-19 CNS
SNB-75 CNS = tested on: SNB-75 CNS
SR leukemia = tested on: SR leukemia
SW-620 colon = tested on: SW-620 colon
T-47D breast = tested on: T-47D breast
TK-10 renal = tested on: TK-10 renal
U251 glioblastoma = tested on: U251 glioblastoma
UACC-257 melanoma = tested on: UACC-257 melanoma
UACC-62 melanoma = tested on: UACC-62 melanoma
UO-31 renal = tested on: UO-31 renal

## COc1cc(Nc2ncc(F)c(Nc3ccc4c(n3)NC(=O)C(C)(C)O4)n2)cc(OC)c1OC
786-0 renal
  GI50: 16.3 µM
  TGI: > 100 µM
A498 renal
  GI50: 20.6 µM
  TGI: > 100 µM
ACHN renal
  GI50: 1.6 µM
  TGI: > 100 µM
BT-549 breast
  GI50: 4.37 µM
  TGI: > 100 µM
CAKI-1 renal
  GI50: 0.445 µM
  TGI: > 100 µM
CCRF-CEM leukemia
  GI50: 9.52 µM
  TGI: > 100 µM
COLO 205 colon
  GI50: 4.34 µM
  TGI: 29.8 µM
DU-145 prostate
  GI50: 14.6 µM
  TGI: > 100 µM
EKVX NSCLC
  GI50: 0.808 µM
  TGI: > 100 µM
HCC-2998 colon
  GI50: 14.7 µM
  TGI: > 100 µM
HCT-116 colon
  GI50: > 100 µM
  TGI: > 100 µM
HCT-15 colon
  GI50: 4.36 µM
  TGI: > 100 µM
HL-60(TB) leukemia
  GI50: 3.37 µM
  TGI: 8.28 µM
HOP-62 NSCLC
  GI50: 5.75 µM
  TGI: 31.7 µM
HOP-92 NSCLC
  GI50: 15.4 µM
  TGI: > 100 µM
HS 578T breast
  GI50: 0.805 µM
  TGI: 18.4 µM
HT29 colon
  GI50: 10.6 µM
  TGI: > 100 µM
KM12 colon
  GI50: 0.346 µM
  TGI: > 100 µM
LOX IMVI melanoma
  GI50: 6.19 µM
  TGI: > 100 µM
M14 melanoma
  GI50: 24.7 µM
  TGI: > 100 µM
MALME-3M melanoma
  GI50: 29.5 µM
  TGI: > 100 µM
MCF7 breast
  GI50: 3.9 µM
  TGI: > 100 µM
MDA-MB-231 breast
  GI50: 2.58 µM
  TGI: 97 µM
MDA-MB-435 melanoma
  GI50: 9.68 µM
  TGI: > 100 µM
MDA-MB-468 breast
  GI50: 5.78 µM
  TGI: > 100 µM
NCI-H226 lung
  GI50: 0.319 µM
  TGI: 13.2 µM
NCI-H23 lung
  GI50: 0.538 µM
  TGI: > 100 µM
NCI-H322M lung
  GI50: 4.17 µM
  TGI: > 100 µM
NCI-H460 NSCLC
  GI50: 11.3 µM
  TGI: > 100 µM
NCI-H522 lung
  GI50: 0.7 µM
  TGI: 13.1 µM
NCI/ADR-RES ovarian
  GI50: 13.4 µM
  TGI: > 100 µM
OVCAR-3 ovarian
  GI50: 6.28 µM
  TGI: > 100 µM
OVCAR-4 ovarian
  GI50: 16.4 µM
  TGI: > 100 µM
OVCAR-8 ovarian
  GI50: 4.11 µM
  TGI: 19.7 µM
PC-3 prostate
  GI50: 8.94 µM
  TGI: > 100 µM
RPMI-8226 leukemia
  GI50: > 100 µM
  TGI: > 100 µM
RXF 393 renal
  GI50: 0.516 µM
  TGI: 30.9 µM
SF-268 CNS
  GI50: 2.55 µM
  TGI: 47.4 µM
SF-295 CNS
  GI50: 3.65 µM
  TGI: > 100 µM
SF-539 CNS
  GI50: 1.24 µM
  TGI: 17.8 µM
SK-MEL-28 melanoma
  GI50: 43.8 µM
  TGI: > 100 µM
SK-MEL-5 melanoma
  GI50: 7.41 µM
  TGI: > 100 µM
SK-OV-3 ovarian
  GI50: 0.371 µM
  TGI: > 100 µM
SN12C renal
  GI50: 0.258 µM
  TGI: > 100 µM
SNB-19 CNS
  GI50: 28.5 µM
  TGI: > 100 µM
SNB-75 CNS
  GI50: 1.17 µM
  TGI: 28 µM
SR leukemia
  GI50: 1.27 µM
  TGI: 2.72 µM
SW-620 colon
  GI50: > 100 µM
  TGI: > 100 µM
T-47D breast
  GI50: 52.6 µM
  TGI: > 100 µM
TK-10 renal
  GI50: > 100 µM
  TGI: > 100 µM
U251 glioblastoma
  GI50: 38.9 µM
  TGI: > 100 µM
UACC-257 melanoma
  GI50: > 100 µM
  TGI: > 100 µM
UACC-62 melanoma
  GI50: > 100 µM
  TGI: > 100 µM
UO-31 renal
  GI50: 55.1 µM
  TGI: > 100 µM
